Laboratory results taken from the supplement of paper PMC7600603.

Columns and labels:
[1] = system: DLD1 NRF2-GOF; conditions: 72 h; CellTiter-Glo viability
In short: (§1)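 DLD1 colorectal cancer cells, an isogenic pair either NRF2 wild-type or carrying a CRISPR gain-of-function, were cultured in DMEM with 10% FBS and treated in 384-well plates with library compounds at 5 concentrations across a 10,000-fold range. CellTiter-Glo viability was read on a Pherastar FS reader after 72 h and normalised to vehicle wells and 100-μM positive-control wells. Four-parameter logistic dose-response fits were applied. EC50 and drug sensitivity score, a normalised area under the curve, were taken from these fits.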

[2] = system: DLD1 NRF2-WT; conditions: 72 h; CellTiter-Glo viability
In short: as §1

[3] = system: DLD1 NRF2-GOF; assay: TC50 cytotoxicity; higher = less toxic; conditions: 72 h; CellTox Green cytotoxicity
In short: (§2)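 After growth in DMEM with 10% FBS, NRF2 wild-type and CRISPR-edited isogenic DLD1 cells were seeded in 384-well plates and given library compounds at 5 concentrations across a 10,000-fold range. Fluorescence from CellTox Green was taken on a Pherastar FS reader after 72 h and normalised against vehicle wells and 100-μM positive-control wells. From logistic dose-response fits of cytotoxicity came the TC50 and the drug sensitivity score, a normalised area under the curve.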

[4] = system: DLD1 NRF2-WT; assay: TC50 cytotoxicity; higher = less toxic; conditions: 72 h; CellTox Green cytotoxicity
In short: as §2

[5] = system: DLD1 NRF2-GOF; assay: drug sensitivity score (DSS) cytotoxicity (DSS score); higher = more toxic; extreme values may be limits of the assay; conditions: 72 h; CellTox Green cytotoxicity
In short: as §2

[6] = system: DLD1 NRF2-WT; assay: as above; conditions: 72 h; CellTox Green cytotoxicity
In short: as §2

[7] = system: DLD1 NRF2-GOF; assay: drug sensitivity score (DSS) viability (DSS score); higher = more sensitive; extreme values may be limits of the assay; conditions: 72 h; CellTiter-Glo viability
In short: as §1

[8] = system: DLD1 NRF2-WT; assay: as above; conditions: 72 h; CellTiter-Glo viability
In short: as §1

| SMILES | EC50 viability [1] | EC50 viability [2] | TC50 cytotoxicity [3] | TC50 cytotoxicity [4] | drug sensitivity score [5] | drug sensitivity score [6] | drug sensitivity score [7] | drug sensitivity score [8] |
| --- | --- | --- | --- | --- | --- | --- | --- | --- |
| COc1cc2ncnc(Nc3ccc(F)c(Cl)c3)c2cc1OCCCN1CCOCC1 [Gefitinib] | 4.08 µM | 2.46 µM | > 10 µM | > 10 µM | 0 | 0 | 1.5 | 3.7 |
| Nc1ccn([C@@H]2O[C@H](CO)[C@@H](O)C2(F)F)c(=O)n1 [Gemcitabine] | 0.0284 µM | 0.0267 µM | > 1 µM | > 1 µM | 0 | 0 | 10.7 | 11.4 |
| CN1CCN(C2CCN(C(=O)Nc3cc(Oc4ccc(NC(=O)C5(C(=O)Nc6ccc(F)cc6)CC5)c(F)c4)ccn3)CC2)CC1 [Golvatinib] | > 2.5 µM | > 2.5 µM | > 2.5 µM | > 2.5 µM | 0 | 0 | 0 | 1.2 |
| NC(=O)NO [Hydroxyurea] | 157 µM | 364 µM | > 1000 µM | > 1000 µM | 0 | 0 | 5.8 | 1.7 |
| C=CC(=O)N1CCC[C@@H](n2nc(-c3ccc(Oc4ccccc4)cc3)c3c(N)ncnc32)C1 [Ibrutinib] | > 1 µM | > 1 µM | > 1 µM | > 1 µM | 0 | 0 | 0 | 0.1 |
| CC(=O)[C@]1(O)Cc2c(O)c3c(c(O)c2[C@@H](O[C@H]2C[C@H](N)[C@H](O)[C@H](C)O2)C1)C(=O)c1ccccc1C3=O [Idarubicin] | 0.0969 µM | 0.0452 µM | 0.219 µM | 0.15 µM | 2.4 | 4.8 | 10 | 14.2 |
| CC[C@H](Nc1ncnc2[nH]cnc12)c1nc2cccc(F)c2c(=O)n1-c1ccccc1 [Idelalisib] | > 10 µM | > 10 µM | > 10 µM | > 10 µM | 0 | 0 | 2 | 1.6 |
| O=C(Nc1ccncc1)C(=O)c1cn(Cc2ccc(Cl)cc2)c2ccccc12 [Indibulin] | 0.381 µM | 0.283 µM | > 10 µM | > 10 µM | 0 | 0.4 | 7.8 | 8.6 |
| N#Cc1ccnc(N2C(=O)CC[C@H]2C(=O)N(c2cncc(F)c2)[C@H](C(=O)NC2CC(F)(F)C2)c2ccccc2Cl)c1 [Ivosidenib] | 0.349 µM | > 10 µM | > 10 µM | > 10 µM | 0 | 0 | 6.1 | 0.5 |
| C/C(=C\c1csc(C)n1)[C@@H]1C[C@@H]2O[C@]2(C)CCC[C@H](C)[C@H](O)[C@@H](C)C(=O)C(C)(C)[C@@H](O)CC(=O)N1 [Ixabepilone] | 0.317 µM | 0.407 µM | > 1 µM | 0.201 µM | 0.5 | 2.4 | 4.2 | 3.5 |
| CC(C)C[C@H](NC(=O)CNC(=O)c1cc(Cl)ccc1Cl)B(O)O [Ixazomib] | 0.125 µM | 0.11 µM | 0.246 µM | 0.148 µM | 6.8 | 9.6 | 10.3 | 11 |
| Cc1sc2c(c1C)C(c1ccc(Cl)cc1)=N[C@@H](CC(=O)OC(C)(C)C)c1nnc(C)n1-2 [JQ1] | 2.71 µM | 0.272 µM | > 10 µM | > 10 µM | 0 | 0 | 2.6 | 8.8 |
| CC(C)NC(=O)COc1cccc(-c2nc(Nc3ccc4[nH]ncc4c3)c3ccccc3n2)c1 [KD025] | 0.0429 µM | 2.28 µM | > 5 µM | > 5 µM | 0 | 0 | 5.4 | 1.8 |
| Oc1ccc2c(c1)CC[C@H](c1ccccc1)[C@@H]2c1ccc(OCCN2CCCC2)cc1 [Lasofoxifene] | > 1 µM | > 1 µM | > 1 µM | > 1 µM | 0 | 0 | 0 | 0 |
| COc1cc2nccc(Oc3ccc(NC(=O)NC4CC4)c(Cl)c3)c2cc1C(N)=O [Lenvatinib] | > 2.5 µM | > 2.5 µM | > 2.5 µM | > 2.5 µM | 0 | 0 | 0 | 0.1 |
| Cc1ccc(F)c(NC(=O)Nc2ccc(-c3cccc4[nH]nc(N)c34)cc2)c1 [Linifanib] | > 1 µM | > 1 µM | > 1 µM | > 1 µM | 0 | 0 | 1.1 | 0.5 |
| C[C@]1(O)C[C@@H](c2nc(-c3ccc4ccc(-c5ccccc5)nc4c3)c3c(N)nccn32)C1 [Linsitinib] | > 10 µM | > 10 µM | > 10 µM | > 10 µM | 0 | 0 | 0 | 0 |
| NC(=O)N1CCC(CC(=O)N2CCC([C@H]3c4ncc(Br)cc4CCc4cc(Cl)cc(Br)c43)CC2)CC1 [Lonafarnib] | 14.2 µM | 10.5 µM | 24.2 µM | 23.5 µM | 6.7 | 6.3 | 9.7 | 11 |
| CNC(=O)c1cccc2cc(Oc3ccnc4cc(OCC5(N)CC5)c(OC)cc34)ccc12 [Lucitanib] | > 10 µM | 0.796 µM | > 10 µM | > 10 µM | 0 | 0 | 1.3 | 2.7 |
| CCNC(=O)c1noc(-c2cc(C(C)C)c(O)cc2O)c1-c1ccc(CN2CCOCC2)cc1 [Luminespib] | 0.0128 µM | 0.0121 µM | > 1 µM | > 1 µM | 0 | 0 | 21.4 | 22 |
| O=C(O)CC[C@H]1CC[C@@](c2cc(F)ccc2F)(S(=O)(=O)c2ccc(Cl)cc2)CC1 [MK-0752] | 0.0017 µM | > 1 µM | > 1 µM | > 1 µM | 0 | 0 | 9.1 | 0.7 |
